According to US20170073337A1, “DIHYDROTHIAZINE AND DIHYDROOXAZINE DERIVATIVES HAVING BACE1 INHIBITORY ACTIVITY” (Shionogi & Co., Ltd., priority 2014, published 2017):
Values after ≈ are worked out from the molar mass of the structure shown. Read-outs that look alike come from different tables or passages of the source.

Tests used:
[1] = Solubility test; format: physicochemical
Procedure, shortened: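 Dissolved concentration determined by LC/MS or SPE/MS (absolute calibration) in diluted filtrates, after 2 μL of 10 mmol/L DMSO stock was added to 198 μL JP 1st or JP 2nd fluid and equilibrated either 1 h with shaking at room temperature or 16 h standing at 25 °C.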

[2] = target: T1, CYP3A4 (Homo sapiens, UniProt P08684); test: CYP inhibition test (CYP3A4); format: in vitro ADME; details: pooled human liver microsomes; terfenadine hydroxylation
T1 construct: The commercially available pooled human liver microsomes are used as an enzyme resource; from tissue; host or cells: pooled human liver microsomes
T1 sequence (P08684 whole entry): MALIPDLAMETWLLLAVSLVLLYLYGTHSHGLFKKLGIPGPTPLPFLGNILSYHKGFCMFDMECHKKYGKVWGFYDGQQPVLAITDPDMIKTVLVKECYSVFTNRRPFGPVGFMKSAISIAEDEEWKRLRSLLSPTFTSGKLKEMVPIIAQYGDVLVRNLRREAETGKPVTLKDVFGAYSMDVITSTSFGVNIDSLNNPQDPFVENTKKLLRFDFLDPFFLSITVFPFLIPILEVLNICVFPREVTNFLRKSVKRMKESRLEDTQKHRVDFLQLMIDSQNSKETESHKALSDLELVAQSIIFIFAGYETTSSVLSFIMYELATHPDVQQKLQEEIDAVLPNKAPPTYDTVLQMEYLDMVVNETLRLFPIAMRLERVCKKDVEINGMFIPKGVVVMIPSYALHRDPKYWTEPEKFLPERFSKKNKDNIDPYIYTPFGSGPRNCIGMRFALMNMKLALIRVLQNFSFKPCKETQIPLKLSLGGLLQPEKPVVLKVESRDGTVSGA
Procedure, shortened: (§1)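 Pooled human liver microsomes (0.2 mg protein/mL) with compound at 1, 5, 10 and 20 μmol/L and NADPH, at 37 °C. Marker substrates: dextromethorphan 5 μmol/L (2D6), terfenadine 1 μmol/L (3A4), S-mephenytoin 50 μmol/L (2C19), tolbutamide 100 μmol/L (2C9). Metabolites were measured by LC/MS/MS, and IC50 was derived by logistic fit of remaining activity against the DMSO control.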

[3] = target: T2, CYP1A2 (Homo sapiens, UniProt P05177); test: CYP inhibition test (CYP1A2); format: in vitro ADME; details: pooled human liver microsomes; 7-ethoxyresorufin O-deethylation
T2 construct: The commercially available pooled human liver microsomes are used as an enzyme resource; from tissue; host or cells: pooled human liver microsomes
T2 sequence (P05177 1-516): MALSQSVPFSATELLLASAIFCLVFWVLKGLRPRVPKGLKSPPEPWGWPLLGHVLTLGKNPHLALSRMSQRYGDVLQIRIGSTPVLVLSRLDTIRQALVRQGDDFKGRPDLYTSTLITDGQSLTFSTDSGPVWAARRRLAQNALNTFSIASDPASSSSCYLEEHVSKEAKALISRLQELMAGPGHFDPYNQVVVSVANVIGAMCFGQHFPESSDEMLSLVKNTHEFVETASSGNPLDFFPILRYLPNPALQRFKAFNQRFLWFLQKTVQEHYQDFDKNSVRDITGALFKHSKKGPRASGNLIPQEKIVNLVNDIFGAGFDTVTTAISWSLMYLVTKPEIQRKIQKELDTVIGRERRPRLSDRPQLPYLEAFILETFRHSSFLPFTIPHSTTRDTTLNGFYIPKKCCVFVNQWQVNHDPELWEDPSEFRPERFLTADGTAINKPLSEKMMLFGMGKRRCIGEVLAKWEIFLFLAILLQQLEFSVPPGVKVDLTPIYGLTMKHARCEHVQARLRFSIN
Procedure, shortened: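 Inhibition of CYP1A2 was measured in commercially available pooled human liver microsomes (0.2 mg protein/mL) using 7-ethoxyresorufin O-deethylation with 0.5 μmol/L ethoxyresorufin. Test compound at 1, 5, 10, 20 μmol/L in […] Hepes buffer was incubated at 37° C. after NADPH addition; methanol/acetonitrile=1/1 (v/v) stopped the reaction, and resorufin was read fluorescently.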

[4] = target: T3, human ether-a-go-go related gene (hERG) channel (Homo sapiens, UniProt Q12809); test: hERG test; format: cell-based; details: % inhibition of IKr tail peak current at 3 uM; CHO cells expressing hERG
T3 construct: expressed in transfected cells; host or cells: CHO cells
T3 sequence (Q12809 whole entry): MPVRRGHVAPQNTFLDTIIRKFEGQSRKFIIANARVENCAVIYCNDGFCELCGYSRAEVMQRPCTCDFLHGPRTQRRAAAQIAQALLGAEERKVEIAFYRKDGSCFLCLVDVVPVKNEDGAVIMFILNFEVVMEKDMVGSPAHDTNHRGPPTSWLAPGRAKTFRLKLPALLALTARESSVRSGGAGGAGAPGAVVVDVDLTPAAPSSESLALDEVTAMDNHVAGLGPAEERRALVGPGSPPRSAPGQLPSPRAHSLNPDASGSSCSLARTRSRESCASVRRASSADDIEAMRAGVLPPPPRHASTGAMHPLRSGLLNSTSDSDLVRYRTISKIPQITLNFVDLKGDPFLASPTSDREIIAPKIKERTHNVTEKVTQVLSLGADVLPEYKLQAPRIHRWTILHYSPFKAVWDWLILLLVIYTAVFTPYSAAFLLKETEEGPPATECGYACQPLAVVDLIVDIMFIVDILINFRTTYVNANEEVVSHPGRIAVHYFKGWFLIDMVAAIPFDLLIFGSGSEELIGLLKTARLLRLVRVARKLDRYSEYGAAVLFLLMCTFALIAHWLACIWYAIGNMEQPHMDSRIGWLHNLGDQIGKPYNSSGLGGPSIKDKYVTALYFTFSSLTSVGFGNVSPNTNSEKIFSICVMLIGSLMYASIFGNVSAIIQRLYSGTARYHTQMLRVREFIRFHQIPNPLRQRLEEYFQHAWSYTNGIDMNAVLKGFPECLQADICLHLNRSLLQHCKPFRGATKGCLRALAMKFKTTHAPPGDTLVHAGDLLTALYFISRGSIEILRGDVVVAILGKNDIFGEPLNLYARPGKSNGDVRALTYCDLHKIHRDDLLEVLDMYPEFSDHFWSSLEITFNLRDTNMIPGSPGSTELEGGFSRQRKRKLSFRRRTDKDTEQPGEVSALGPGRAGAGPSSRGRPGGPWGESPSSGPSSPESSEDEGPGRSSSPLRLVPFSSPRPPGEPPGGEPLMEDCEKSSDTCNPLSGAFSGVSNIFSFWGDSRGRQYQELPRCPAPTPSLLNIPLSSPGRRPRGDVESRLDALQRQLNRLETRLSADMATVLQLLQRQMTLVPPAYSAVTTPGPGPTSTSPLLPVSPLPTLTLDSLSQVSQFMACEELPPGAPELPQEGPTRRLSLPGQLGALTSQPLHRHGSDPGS
Procedure, shortened: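 Automated whole-cell patch clamp was run on CHO cells carrying human hERG, held at −80 mV. Current was recorded during the −50 mV repolarization (2 s) that followed a 2 s +20 mV step, after a −50 mV leak pulse.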

[5] = target: T4, CYP2C19 (Homo sapiens, UniProt P33261); test: CYP inhibition test (CYP2C19); format: in vitro ADME; details: pooled human liver microsomes; mephenytoin 4′-hydroxylation
T4 construct: The commercially available pooled human liver microsomes are used as an enzyme resource; from tissue; host or cells: pooled human liver microsomes
T4 sequence (P33261 whole entry): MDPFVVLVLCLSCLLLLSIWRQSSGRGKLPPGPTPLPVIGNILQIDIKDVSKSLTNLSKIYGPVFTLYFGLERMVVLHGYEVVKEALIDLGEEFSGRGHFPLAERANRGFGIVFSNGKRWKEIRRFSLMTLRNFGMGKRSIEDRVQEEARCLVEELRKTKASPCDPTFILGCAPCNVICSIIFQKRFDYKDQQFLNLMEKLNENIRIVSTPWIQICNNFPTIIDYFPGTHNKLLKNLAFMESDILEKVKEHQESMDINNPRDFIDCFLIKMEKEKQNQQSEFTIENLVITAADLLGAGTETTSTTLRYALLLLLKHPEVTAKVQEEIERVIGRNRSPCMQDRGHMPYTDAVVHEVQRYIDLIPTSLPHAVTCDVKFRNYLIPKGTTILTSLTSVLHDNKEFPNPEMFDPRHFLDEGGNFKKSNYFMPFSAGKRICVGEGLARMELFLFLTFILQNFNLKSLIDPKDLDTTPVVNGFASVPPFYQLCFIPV
Procedure, shortened: as §1

[6] = Metabolic stability test; format: in vitro ADME; details: human liver microsomes, 37° C., 30 minutes, NADPH
Procedure, shortened: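 Parent compound was measured by LC/MS/MS or SPE/MS after a methanol/acetonitrile quench and reported as % remaining, with the 0 min sample set to 100%. Incubations ran 30 min at 37 °C in pH 7.4 Tris buffer containing pooled human liver microsomes at 0.5 mg protein/mL and 1 mmol/L NADPH.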

[7] = JP 1st fluid, 25 °C, pH 1.2, simulated gastric fluid, kinetic from dmso stock, read-out: JP1
[8] = JP 2nd fluid A, 25 °C, pH 6.8, aqueous buffer, kinetic from dmso stock, read-out: JP2_μM
[9] = JP 1st fluid, pH 1.2, simulated gastric fluid, kinetic from dmso stock, read-out: JP1
[10] = JP 2nd fluid A, pH 6.8, aqueous buffer, kinetic from dmso stock, read-out: JP2_μM
[11] = solubility in JP 2nd fluid B, 1% DMSO, *2: shaken for 1 hour at room temperature, read-out: JP2_μM
[12] = JP 2nd fluid B, pH 6.8, aqueous buffer, kinetic from dmso stock, read-out: JP2_μM

SMILES	solubility kinetic at 16 h [1, 7]	solubility kinetic at 16 h [1, 8]	IC50 [2]	IC50 [3]	IC50 [5]	remaining % [6]	solubility kinetic at 1 h [1, 9]	solubility kinetic at 1 h [1, 10]	solubility kinetic at 16 h [1, 11]	solubility kinetic at 1 h [1, 12]	hERG_3 uM_% [4]
C[C@H]1SC(N)=N[C@](C)(c2cc(NC(=O)c3cnc(OC(F)F)cn3)ccc2F)[C@H]1F [Compound I-47]			≥ 20 µM	≥ 20 µM	≥ 20 µM	96.9%	> 50 µM	30.5 µM (≈ 13.5 µg/mL)			40.4%
C[C@H]1SC(N)=N[C@](C)(c2cc(NC(=O)c3coc(CF)n3)ccc2F)[C@H]1F [Compound I-49]			≥ 20 µM	≥ 20 µM	≥ 20 µM	95.4%	> 50 µM	> 50 µM			27.2%
Cc1cc(C#N)cnc1C(=O)Nc1ccc(F)c([C@@]2(C)N=C(N)S[C@H](C)[C@@H]2F)c1 [Compound I-52]			≥ 20 µM	≥ 20 µM	≥ 20 µM	60.3%	> 50 µM			13.9 µM (≈ 5.78 µg/mL)	55.7%
C[C@H]1SC(N)=N[C@](C)(c2cc(NC(=O)c3ncc(OCC(F)(F)F)cn3)ccc2F)[C@H]1F [Compound I-53]			≥ 20 µM	≥ 20 µM	≥ 20 µM	109%	> 50 µM		>50 µM		47.9%
COc1cnc(C(=O)Nc2ccc(F)c([C@@]3(C)N=C(N)O[C@H]([C@@H](C)F)[C@@H]3F)c2)cn1 [Compound I-71]			≥ 20 µM	≥ 20 µM	≥ 20 µM	63%	> 50 µM	> 50 µM			17%
COc1cnc(C(=O)Nc2ccc(F)c([C@@]3(C)N=C(N)O[C@H](C(F)F)[C@@H]3C)c2)cn1 [Compound I-86]			≥ 20 µM	≥ 20 µM	≥ 20 µM	67.5%	> 50 µM	> 50 µM			23.8%
CO[C@H]1[C@@H](C)SC(N)=N[C@]1(C)c1cc(NC(=O)c2cnc(OCF)cn2)ccc1F [Compound I-87]			≥ 20 µM	≥ 20 µM	≥ 20 µM	81%	> 50 µM		>50 µM		13.8%
CO[C@H]1[C@@H](C)SC(N)=N[C@]1(C)c1cc(NC(=O)c2ccc(C#N)cn2)ccc1F [Compound I-88]			≥ 20 µM	≥ 20 µM	≥ 20 µM	83.5%	> 50 µM		>50 µM		45.6%
CO[C@H]1[C@@H](C)SC(N)=N[C@]1(C)c1cc(NC(=O)c2ccc(F)cn2)ccc1F [Compound I-89]			≥ 20 µM	≥ 20 µM	≥ 20 µM	86.7%	> 50 µM		>50 µM		42.7%
COc1cnc(C(=O)Nc2ccc(F)c([C@@]3(C)N=C(N)S[C@H](C)[C@@H]3OC)c2)cn1 [Compound I-90]			≥ 20 µM	≥ 20 µM	≥ 20 µM	83.1%	> 50 µM		>50 µM		11.4%
COC[C@H]1SC(N)=N[C@](C)(c2cc(NC(=O)c3cnc(OCF)cn3)ccc2F)[C@H]1F [Compound I-91]			≥ 20 µM	≥ 20 µM	≥ 20 µM	74.4%	> 50 µM		>50 µM		11.3%
COc1ccc(C(=O)Nc2ccc(F)c([C@@]3(C)N=C(N)S[C@H](C)[C@@H]3F)c2)nn1 [Compound I-108]			≥ 20 µM	≥ 20 µM	≥ 20 µM	92.1%	> 50 µM		>50 µM		39.5%

Further lines, with some results ahead:

solubility kinetic at 16 h [1, 7]	solubility kinetic at 16 h [1, 8]	IC50 [2]	IC50 [3]	IC50 [5]	remaining % [6]	solubility kinetic at 1 h [1, 9]	solubility kinetic at 1 h [1, 10]	solubility kinetic at 16 h [1, 11]	solubility kinetic at 1 h [1, 12]	SMILES	hERG_3 uM_% [4]
> 50 µM	> 50 µM	≥ 20 µM	≥ 20 µM	≥ 20 µM	94.6%					Cc1nc(C(=O)Nc2ccc(F)c([C@@]3(C)N=C(N)O[C@H](C(F)(F)F)[C@@H]3C)c2)co1 [Compound I-32]	15.2%
		≥ 20 µM	≥ 20 µM	≥ 20 µM	87.5%	39.4 µM (≈ 17.4 µg/mL)	> 50 µM			C[C@H]1[C@@H](C(F)F)OC(N)=N[C@]1(C)c1cc(NC(=O)c2cnc(OCF)cn2)ccc1F [Compound I-33]	21.9%
		≥ 20 µM	≥ 20 µM	≥ 20 µM	106%	> 50 µM	> 50 µM			CC(F)(F)[C@H]1OC(N)=N[C@](C)(c2cc(NC(=O)c3ccc(C#N)cn3)ccc2F)[C@H]1F [Compound I-40]	48.4%
		≥ 20 µM	≥ 20 µM	≥ 20 µM	68.2%	> 50 µM	> 50 µM			COc1cnc(C(=O)Nc2ccc(F)c([C@@]3(C)N=C(N)O[C@H](C(C)(F)F)[C@@H]3F)c2)cn1 [Compound I-42]	15.5%
34 µM (≈ 15.4 µg/mL)	> 50 µM	≥ 20 µM	≥ 20 µM	≥ 20 µM	86.4%					C[C@]1(c2cc(NC(=O)c3cnc(OCF)cn3)ccc2F)N=C(N)OCC12CC(F)(F)C2 [Compound I-44]	28.9%
35.8 µM (≈ 15.1 µg/mL)	> 50 µM	≥ 20 µM	≥ 20 µM	≥ 20 µM	93.5%					C[C@]1(c2cc(NC(=O)c3ccc(F)cn3)ccc2F)N=C(N)OCC12CC(F)(F)C2 [Compound I-45]	51.6%
		≥ 10 µM	≥ 20 µM	≥ 20 µM	76.5%	> 50 µM		>50 µM		C[C@H]1SC(N)=N[C@](C)(c2cc(NC(=O)c3ccc(OCF)cn3)ccc2F)[C@H]1F [Compound I-51]	39.4%
		≥ 10 µM	≥ 20 µM	≥ 20 µM	67%	> 50 µM		>50 µM		CC[C@H]1SC(N)=N[C@](C)(c2cc(NC(=O)c3cnc(OCF)cn3)ccc2F)[C@H]1F [Compound I-66]	27.1%
		≥ 10 µM	≥ 20 µM	≥ 20 µM	74.3%	> 50 µM		>50 µM		CC[C@H]1SC(N)=N[C@](C)(c2cc(NC(=O)c3ccc(F)cn3)ccc2F)[C@H]1F [Compound I-70]	58.6%
		≥ 10 µM	≥ 20 µM	≥ 20 µM	101%	> 50 µM			19.3 µM (≈ 8.91 µg/mL)	C[C@]1(c2cc(NC(=O)c3ccc(C#N)cn3)ccc2F)N=C(N)O[C@H](C(F)(F)C2CC2)[C@@H]1F [Compound I-81]	49.3%
